Data as given in US20250367138A1 (Novocure GmbH, priority 2024, published 2025).

Assays:
[1] = test system: GBM cell lines U251, LN229, and U87; test: Live cell count of GBM cell lines treated with MGO and TTFields (Inovitro system); format: cell-based
Text: At the experimental endpoint cells were visualized by microscopy, counted, and taken for protein or RNA extraction for further analysis.
GBM cell lines U251, LN229, and U87 were used in this Example. […] The Inovitro™ system was operated with low intensity (1-3 V/cm) and medium frequency (200 kHz) alternating electric fields, which have a selective antimitotic effect on cancer cells. […] In addition, the arrangement of alpha and gamma tubulin was visualised by immunofluorescence.
The results of each experiment are indicated as cell count (live cells).

GBM cells = test: Preliminary work: MGO-induced glycation and invasion of GBM cells; format: cell-based
Text: Glioblastoma (GBM) is a highly aggressive and invasive brain tumor.

What does the source list for `CC(=O)C=O` [MGO, methylglyoxal]?
proliferation of cells (cell count) ([1]; 0.1 mM MGO alone, FIG. 2): increased proliferation; effect of TTFields on proliferation of cells under MGO ([1]; 0.1 mM MGO plus TTFields (200 kHz, 1-3 V/cm), FIG. 2): reduce the increased proliferation; rate of apoptosis with additional TTFields ([1]; 0.3 mM MGO over the entire period plus TTFields (200 kHz, 1-3 V/cm)): enhanced; rate of apoptosis ([1]; 0.3 mM MGO over the entire period, alone, FIGS. 3-4): increased rate of apoptosis; combination effect of concomitant TTFields and MGO (live cell count) ([1]; Example 2, experiments A-H: 0.1 or 0.3 mmol/L MGO, TTFields 24-72 h, U251, LN229, U87, FIGS. 5-12): synergistic effect; glycation of cell surface proteins (GBM cells): induces glycation of cell surface proteins; invasion / phenotype (GBM cells; associated with MGO-induced glycation): increased invasion
